Data as given in US20250066778A1, “METHODS AND MATERIALS FOR TREATING HEART ATTACK” (THE JOHNS HOPKINS UNIVERSITY, priority 2022, published 2025).

Tests used:
[1] = tested on: Per1/Per2 DKO neonatal mouse cardiomyocytes; test: Gene expression (qPCR) in cultured cardiomyocytes from Per1/Per2 DKO neonatal mouse hearts after treatment; type: cell-based; conditions: for expression of cell cycle / mitosis regulating genes: norepinephrine 1 μM (FIG. 4C); for Wee1 gene expression: norepinephrine 1 μM (FIG. 5E)
Excerpt: Sm22a-Cre (017491) and C57BL/6 mice were obtained from Jackson Lab. NGF +/− mice, Per1/Per2 DKO mice, and Mesp1-Cre mice were as described elsewhere (see, e.g., Wheeler et al., Neuron, 82: 587-602 (2014); Muller et al., J. Neurosci., 32: 14885-14898 (2012); and Saga et al., Development, 126: 3437-3447 (1999)). The animals were randomly allocated to experimental groups and both male and female mice were equally used in all experimental assays. All mouse hearts and cardiomyocytes were harvested at random times during the day unless specified otherwise. Cardiomyocytes were isolated from P0 or P1 mouse hearts using a neonatal cardiomyocyte isolation kit (Miltenyi Biotec) based on manufacturer's instructions. Before plating, cardiomyocytes were filtered through a 70 μm mesh and single cells were cultured in 24-well plates coated with gelatin. The cells were first maintained in 5% fetal bovine serum (FBS) in DMEM with Pen/Strep antibiotics for 24 hours and subsequently treated for at least 2 hours with 50% horse serum in DMEM and then for 2 days with 5% FBS in DMEM. Cardiomyocytes were treated with Norepinephrine (1 μM) (Sigma) or Nerve Growth Factor (NGF, 20 ng/ml) (PeproTech) as indicated. RNA was isolated from mouse hearts and cultured cardiomyocytes using Trizol, and cDNA was generated using the high-capacity cDNA reverse transcription kit (Applied Biosystems). qPCR reactions were performed using the Sybr Select qPCR mix (Thermo Fisher) with indicated primers. Gene expression levels were normalized to Gapdh or Rpl32.

[2] = tested on: wild type neonatal mouse cardiomyocytes (NMCMs); test: Gene expression (qPCR) in cultured wild type neonatal mouse cardiomyocytes after treatment; type: cell-based; conditions: for expression of mitosis regulating genes / Wee1 gene expression / expression of clock (circadian) genes: wild type NMCMs; for expression of mitosis regulating genes: norepinephrine 1 μM (FIG. 4C); for Wee1 gene expression: norepinephrine 1 μM (FIG. 5E); for expression of clock (circadian) genes: reset with 50% serum, norepinephrine 1 μM, after 48 hrs of treatment (FIG. 4B)
Procedure: Cardiomyocytes were isolated from P0 or P1 mouse hearts using a neonatal cardiomyocyte isolation kit (Miltenyi Biotec) based on manufacturer's instructions. Before plating, cardiomyocytes were filtered through a 70 μm mesh and single cells were cultured in 24-well plates coated with gelatin. The cells were first maintained in 5% fetal bovine serum (FBS) in DMEM with Pen/Strep antibiotics for 24 hours and subsequently treated for at least 2 hours with 50% horse serum in DMEM and then for 2 days with 5% FBS in DMEM. Cardiomyocytes were treated with Norepinephrine (1 μM) (Sigma) or Nerve Growth Factor (NGF, 20 ng/ml) (PeproTech) as indicated.
RNA was isolated from mouse hearts and cultured cardiomyocytes using Trizol, and cDNA was generated using the high-capacity cDNA reverse transcription kit (Applied Biosystems). qPCR reactions were performed using the Sybr Select qPCR mix (Thermo Fisher) with indicated primers. Gene expression levels were normalized to Gapdh or Rpl32.

Row | Compound | expression of cell cycle / mitosis regulating genes [1] | expression of cell cycle / mitosis regulating genes ([1]; listed as norepinephrine) | Wee1 gene expression [1] | Wee1 gene expression ([1]; listed as norepinephrine) | expression of mitosis regulating genes [2] | expression of mitosis regulating genes ([2]; listed as norepinephrine) | Wee1 gene expression [2] | Wee1 gene expression ([2]; listed as norepinephrine) | expression of clock (circadian) genes [2] | expression of clock (circadian) genes ([2]; listed as norepinephrine) | cell cycle gene expression ([2]; ex vivo treatment of NMCMs with NGF 20 ng/ml (FIG. 9E))
1 | NC[C@H](O)c1ccc(O)c(O)c1 [Norepinephrine] | failed to suppress mitosis regulating genes apart from Aurkb | no significant effect on cell cycle genes apart from Aurkb | this effect was not observed in Per1/Per2 DKO cardiomyocytes | this effect was not observed in the absence of Per1/Per2 | decreased the expression of mitosis regulating genes | suppressed mitosis genes | induced Wee1 gene expression | induces Wee1 expression | induces the expression of circadian genes | induced Per1 and Per2 as well as Cryptochrome1 (Cry1) and Cry2 genes | –
2 | NGF: Nerve Growth Factor (PeproTech), used at 20 ng/ml on neonatal mouse cardiomyocytes | – | – | – | – | – | – | – | – | – | – | did not affect cell cycle gene expression
